Where a SMILES comes first, the peptide text is derived from it. [ ]: non-standard residue; d: D form. pGlu = O=C1CC[C@@H](C(=O)O)N1; Thz = O=C(O)[C@@H]1CSCN1
Key:
[1] = Antiradical activity: protection against doxorubicin mortality in the mouse; assay type: in vivo, male CD-1 mice; conditions: 0.5 mM/kg per os 4 times in two days; doxorubicin 22 mg/kg i.p.; mortality checked for 14 days
Experimental: (§1) The antitoxic activity was tested by determining the capability of the compounds of the invention to protect rats against formaldehyde and acetaldehyde toxicities (Sprince et al., Agents and Actions, 9, 407, 1979). COBS CD(SD) Rats (C. River) weighing 180-200 g fasted since the night before were orally administered with the test compounds half an hour before and 5 hours after the oral administration of the toxic agent. Formaldehyde was administered at the dose of 900 mg/kg per os and acetaldehyde at the dose of 2150 mg/kg per os; mortality was controlled up to 72 hours later. […] The activity of the compounds of the invention is similar to that of ascorbic acid and L-cysteine. Since acetaldehyde and formaldehyde are an important portion of the toxic agents contained in cigarette smoke, these novel compounds are very important in the treatment of all the lung pathologies connected to tobacco abuse or to atmosphere pollution. The antiradical activity was tested against doxorubicin mortality in the mouse (R. D. Olson et al., Life Sci., 29, 1393, 1981). Groups of 10 male CD-1 mice (C. River) weighing 18-20 g were treated orally with the tested compounds; one hour later doxorubicin was administered at the dose of 22 mg/kg i.p. (10 ml/kg). […]

[2] = Antitoxic activity: protection of rats against formaldehyde toxicity; assay type: in vivo, COBS CD(SD) Rats; conditions: 0.5 mM/kg oral (2 administrations); formaldehyde 900 mg/kg per os; mortality up to 72 hours
Experimental: as §1

[3] = Antitoxic activity: protection of rats against acetaldehyde toxicity; assay type: in vivo, COBS CD(SD) Rats; conditions: 0.5 mM/kg oral (2 administrations); acetaldehyde 2150 mg/kg per os; mortality up to 72 hours
Experimental: as §1

[4] = system: prednisolone-immunodepressed murine peritoneal macrophages; assay: Superoxide anion production by prednisolone-immunodepressed murine peritoneal macrophages (cytochrome C reduction, PMA stimulated); assay type: in vivo, mice; conditions: for Reduced cytochrome C nmoles/1 × 10^6 macrophages (mean ± s.e.): 200 mg/kg/die i.p. + prednisolone 0.5 mg/kg/die s.c., 11 days, macrophages stimulated with phorbol myristate acetate; for Activity on superoxide anion production compared with PGT: same weight dosage as PGT
Experimental: Since the production of the superoxide anion (O2.) plays an important role in macrophage antimicrobial activity (N. P. Cumming, M. J. Pabst, J. Exp. Med., 152, 1659, 1980), the test for stimulation of the superoxide anion production in macrophages by medicaments is very important in the evaluation of the immuno-stimulating activity. Therefore, O2. production in isolated peritoneal macrophages from prednisolone-immunodepressed animals treated with the compounds of the invention was evaluated. Mice were treated subcutaneously for 11 days with 0.5 mg/kg/day with prednisolone and with the tested compounds at a dose of 100 mg/kg intraperitoneally twice a day, whereas the day of killing they received the only compounds of the invention. Then macrophages were isolated by means of peritoneal washing and cultured in RPMI-1640 added with 10% bovine foetal serum at a concentration of 1×10^6 cells/ml and at a temperature of +37° C. 1 ml aliquots of the cell suspension were incubated for 15 min. at 37° C. with cytochrome C from horse hearth and stimulated with phorbol myristate acetate (H. Nielsen, Eur. J. Clin. Pharmacol., 30, 99, 1986). After that, a spectrophotometric determination of reduced ferricytochrome C at λ=550 nm was carried out, using an extinction coefficient E (550)=29.5 mM.

For `CCOC(=O)[C@@H]1CSCN1C(=O)[C@@H]1CCC(=S)N1` [Ia, Ethyl 3-L-(L-5-thioxoprolyl)thiazolidine-4-carboxylate], the “Protection against doxorubicin mortality” value [1] was 40%, the “Protection against formaldehyde mortality” value [2] was 60% and the “Protection against acetaldehyde mortality” value [3] was 70%. For the same compound, the “Reduced cytochrome C nmoles/1 × 10^6 macrophages (mean ± s.e.)” value [4] was 9.15 ± 0.68 nmoles/1 × 10^6 macrophages and the “Activity on superoxide anion production compared with PGT” value [4] was “higher activities than that of PGT”.
With `O=C(O)[C@@H]1CSCN1C(=O)[C@@H]1CCC(=S)N1` [Ib, 3-L-(5-thioxoprolyl)thiazolidine-4-carboxylic acid] the “Protection against doxorubicin mortality” value [1] was 50%, the “Protection against formaldehyde mortality” value [2] was 70% and the “Protection against acetaldehyde mortality” value [3] was 60%. For the same compound, the “Reduced cytochrome C nmoles/1 × 10^6 macrophages (mean ± s.e.)” value [4] was 9.17 ± 0.68 nmoles/1 × 10^6 macrophages and the “Activity on superoxide anion production compared with PGT” value [4] was “higher activities than that of PGT”.
For `O=C1CC[C@@H](C(=O)N2CSC[C@H]2C(=O)O)N1` [PGT, 3-L-pyroglutamyl-L-thiazolidine-4-carboxylic acid, reference compound] ([pGlu]-[Thz]-OH), the “Reduced cytochrome C nmoles/1 × 10^6 macrophages (mean ± s.e.)” value [4] was 8.33 ± 0.77 nmoles/1 × 10^6 macrophages.

— US5212160A, “3-L-(5-thioxo-L-prolyl)thiazolidine-4-carboxylic acid and derivatives therefrom, processes for the preparation thereof and pharmaceutical compositions containing them” (Poli Industria Chimica S.p.A., priority 1990, dated 1993)
